Test results: ChEMBL document CHEMBL5331068, “Briarane-type diterpenoids, the inhibitors of osteoclast formation by interrupting Keap1-Nrf2 interaction and activating Nrf2 pathway” (Eur J Med Chem, 2023)
Active and inactive are the calls of the source. No cut-off for these calls is given here.

How the values were obtained:
BMDM [1] = assay: Anti-osteoclastogenesis activity in RANKL-induced C57BL/6 mouse BMDM cells assessed as decrease in number of F-actin ring formation at 1 to 10 uM incubated for 7 days in the presence of M-CSF by DAPI staining based fluorescence microscopic analysis; assay type: functional, cell-based; conditions: dose 1-10 µM, time 7.0 day
BMDM [2] = assay: Anti-osteoclastogenesis activity in RANKL-induced C57BL/6 mouse BMDM cells assessed as downregulation of MMP-9 mRNA expression at 5 to 10 uM by qRT-PCR analysis; assay type: functional, cell-based; conditions: dose 5-10 µM
[3] = Inhibition of RANKL-induced ERK phosphorylation in C57BL/6 mouse BMDM cells transfected with Nrf2 siRNA at 10 uM incubated for 60 mins by Western blot analysis; assay type: cell-based
BMDM [4] = assay: Anti-osteoclastogenesis activity in C57BL/6 mouse BMDM cells assessed as inhibition of RANKL-induced osteoclastogenesis at 10 uM incubated for 7 days in the presence of M-CSF by TRAP-staining based microscopic analysis relative to control; assay type: functional; conditions: C57BL/6, BMDM, 168 h, time 7 day
RAW264.7 = assay: Anti-osteoclastogenesis activity in RANKL-induced mouse RAW264.7 cells transfected with Nrf2 siRNA assessed as increase in c-fos expression level incubated for 3 days by Western blot analysis; assay type: functional, cell-based; conditions: time 3.0 day
[5] = molecular target: T1, NF-kappa-B inhibitor alpha (Mus musculus) (UniProt Q9Z1E3); assay: Inhibition of RANKL-induced IkappaBalpha phosphorylation in C57BL/6 mouse BMDM cells incubated for 60 mins by Western blot analysis; assay type: cell-based
T1 sequence (whole entry): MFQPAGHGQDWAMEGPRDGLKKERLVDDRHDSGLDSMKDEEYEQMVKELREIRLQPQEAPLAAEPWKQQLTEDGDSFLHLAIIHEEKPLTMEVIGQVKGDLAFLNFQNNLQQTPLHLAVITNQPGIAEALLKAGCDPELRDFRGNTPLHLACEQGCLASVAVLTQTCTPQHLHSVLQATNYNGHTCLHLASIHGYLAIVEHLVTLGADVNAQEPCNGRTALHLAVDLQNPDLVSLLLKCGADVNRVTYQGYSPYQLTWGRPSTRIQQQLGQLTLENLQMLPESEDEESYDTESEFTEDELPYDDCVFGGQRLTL

BMDM [6] = assay: Anti-osteoclastogenesis activity in RANKL-induced C57BL/6 mouse BMDM cells assessed as increase in nuclear Nrf2 level at 5 to 10 uM in the presence of M-CSF by Western blot analysis; assay type: functional, cell-based; conditions: dose 5-10 µM
[7] = molecular target: Kelch-like ECH-associated protein 1 (Mus musculus) (UniProt Q9Z2X8); assay: Binding affinity to Keap1 in mouse RAW264.7 cells assessed as thermal stability at 20 uM preincubated with compound for 1 hrs followed by heating at 37 to 65 degreeC for 3 mins by CETSA; assay type: cell-based; conditions: time 63.0 min
Kelch-like ECH-associated protein 1 (Mus musculus), sequence (Q9Z2X8 whole entry): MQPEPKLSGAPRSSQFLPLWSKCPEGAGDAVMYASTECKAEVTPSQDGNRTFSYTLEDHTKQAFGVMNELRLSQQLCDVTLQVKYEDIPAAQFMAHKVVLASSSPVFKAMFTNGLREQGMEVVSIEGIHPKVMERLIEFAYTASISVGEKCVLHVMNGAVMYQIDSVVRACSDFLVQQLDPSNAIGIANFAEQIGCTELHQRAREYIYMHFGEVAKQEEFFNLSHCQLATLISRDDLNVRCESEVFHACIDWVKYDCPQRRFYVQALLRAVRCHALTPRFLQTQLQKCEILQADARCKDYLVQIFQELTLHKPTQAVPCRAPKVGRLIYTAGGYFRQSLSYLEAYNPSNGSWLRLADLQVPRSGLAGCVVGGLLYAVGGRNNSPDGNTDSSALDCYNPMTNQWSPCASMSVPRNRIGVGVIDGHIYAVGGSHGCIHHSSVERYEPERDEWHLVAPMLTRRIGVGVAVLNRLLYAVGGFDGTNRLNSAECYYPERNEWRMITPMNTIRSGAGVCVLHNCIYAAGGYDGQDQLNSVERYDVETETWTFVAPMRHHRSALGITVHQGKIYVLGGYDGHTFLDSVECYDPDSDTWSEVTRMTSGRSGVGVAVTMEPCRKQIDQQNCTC

BMDM [8] = assay: Anti-osteoclastogenesis activity in RANKL-induced C57BL/6 mouse BMDM cells assessed as downregulation of TRAP mRNA expression at 5 to 10 uM by qRT-PCR analysis; assay type: functional, cell-based; conditions: dose 5-10 µM
[9] = molecular target: T1, NF-kappa-B inhibitor alpha (Mus musculus); assay: Inhibition of RANKL-induced IkappaBalpha phosphorylation in C57BL/6 mouse BMDM cells transfected with Nrf2 siRNA at 10 uM incubated for 60 mins by Western blot analysis; assay type: cell-based
BMDM [10] = assay: Anti-osteoclastogenesis activity in RANKL-induced C57BL/6 mouse BMDM cells assessed as elimination of TRAP-positive multinucleated osteoclast incubated for 7 days in the presence of M-CSF by TRAP-staining based microscopic analysis; assay type: functional, cell-based; conditions: dose 1-10 µM, time 7.0 day
[11] = molecular target: Transcription factor p65 (Mus musculus) (UniProt Q04207); assay: Inhibition of RANKL-induced p65 NF-kappaB phosphorylation in C57BL/6 mouse BMDM cells transfected with Nrf2 siRNA at 10 uM incubated for 60 mins by Western blot analysis; assay type: cell-based
Transcription factor p65 (Mus musculus), sequence (Q04207 whole entry): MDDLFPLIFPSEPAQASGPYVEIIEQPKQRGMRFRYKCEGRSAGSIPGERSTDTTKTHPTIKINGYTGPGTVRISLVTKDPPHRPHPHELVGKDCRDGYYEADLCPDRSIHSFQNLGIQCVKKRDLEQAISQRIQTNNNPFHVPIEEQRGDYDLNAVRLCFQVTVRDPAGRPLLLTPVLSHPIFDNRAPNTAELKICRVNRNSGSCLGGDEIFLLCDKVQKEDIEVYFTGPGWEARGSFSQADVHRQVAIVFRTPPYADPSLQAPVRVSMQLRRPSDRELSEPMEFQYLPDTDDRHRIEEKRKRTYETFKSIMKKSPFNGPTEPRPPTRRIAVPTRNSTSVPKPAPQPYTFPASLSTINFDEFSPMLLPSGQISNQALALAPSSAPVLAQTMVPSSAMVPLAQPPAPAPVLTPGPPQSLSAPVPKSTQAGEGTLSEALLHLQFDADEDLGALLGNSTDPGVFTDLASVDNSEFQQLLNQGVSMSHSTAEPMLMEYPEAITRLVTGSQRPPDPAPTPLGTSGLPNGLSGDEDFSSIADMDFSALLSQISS

[12] = molecular target: T2, Kelch-like ECH-associated protein 1 (Homo sapiens, UniProt Q14145); assay: Binding affinity to recombinant human Keap1 by SPR analysis
T2 sequence (Q14145 whole entry): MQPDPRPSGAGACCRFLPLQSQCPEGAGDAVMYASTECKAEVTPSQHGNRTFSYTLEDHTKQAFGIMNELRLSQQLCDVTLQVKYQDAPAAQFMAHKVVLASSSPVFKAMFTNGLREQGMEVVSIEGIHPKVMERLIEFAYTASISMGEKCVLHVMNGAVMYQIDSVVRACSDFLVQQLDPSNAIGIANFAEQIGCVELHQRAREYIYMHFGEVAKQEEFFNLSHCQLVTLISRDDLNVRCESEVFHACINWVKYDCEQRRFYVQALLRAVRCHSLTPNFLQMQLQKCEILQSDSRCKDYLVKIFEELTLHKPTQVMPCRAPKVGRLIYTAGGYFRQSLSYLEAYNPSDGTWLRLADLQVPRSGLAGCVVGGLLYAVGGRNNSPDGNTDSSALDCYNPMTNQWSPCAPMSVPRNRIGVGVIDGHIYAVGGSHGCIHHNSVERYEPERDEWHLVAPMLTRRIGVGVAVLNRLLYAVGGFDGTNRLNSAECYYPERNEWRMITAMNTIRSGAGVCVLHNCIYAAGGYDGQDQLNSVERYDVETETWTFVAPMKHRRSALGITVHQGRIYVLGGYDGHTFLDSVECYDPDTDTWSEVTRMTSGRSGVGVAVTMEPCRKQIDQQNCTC

BMDM [13] = assay: Anti-osteoclastogenesis activity in RANKL-induced C57BL/6 mouse BMDM cells assessed as downregulation of cathepsin K mRNA expression at 5 to 10 uM by qRT-PCR analysis; assay type: functional, cell-based; conditions: dose 5-10 µM
BMDM [14] = assay: Anti-osteoclastogenesis activity in RANKL-induced C57BL/6 mouse BMDM cells assessed as increase in HO-1 expression at 5 to 10 uM in the presence of M-CSF by Western blot analysis; assay type: functional, cell-based; conditions: dose 5-10 µM
BMDM [15] = assay: Inhibition of osteoclast migration in RANKL-induced C57BL/6 mouse BMDM cells at 10 uM incubated for 48 hrs in the presence of M-CSF by TRAP staining based wound healing assay; assay type: functional, cell-based
BMDM [16] = assay: Anti-osteoclastogenesis activity in RANKL-induced C57BL/6 mouse BMDM cells assessed as downregulation of NFATc1 mRNA expression at 5 to 10 uM by qRT-PCR analysis; assay type: functional, cell-based; conditions: dose 5-10 µM
[17] = molecular target: T2, Kelch-like ECH-associated protein 1; assay: Binding affinity to recombinant human Keap1 assessed as equilibrium dissociation constant by SPR analysis
BMDM [18] = assay: Anti-osteoclastogenesis activity in C57BL/6 mouse BMDM cells assessed as reduction in RANKL-induced ROS level at 5 to 10 uM incubated for 6 hrs by DCF-DA staining based fluorescence analysis; assay type: functional, cell-based; conditions: dose 5-10 µM
BMDM [19] = assay: Anti-osteoclastogenesis activity in RANKL-induced C57BL/6 mouse BMDM cells assessed as increase in NQO-1 expression at 5 to 10 uM in the presence of M-CSF by Western blot analysis; assay type: functional, cell-based; conditions: dose 5-10 µM

Q: Which results are given for C=C1[C@H]2O[C@]3([C@@H](C)C(=O)O[C@H]3[C@H]1Cl)[C@@H](OC(C)=O)[C@H]1[C@]3(CC[C@H](OC(C)=O)[C@]1(C)[C@@H](OC(C)=O)[C@@H]2OC(C)=O)CO3?
A: Activity (BMDM [1]): Active; Activity (BMDM [2]): Active; inhibition [3]: inactive; inhibition at 10 µM (BMDM [4]): 100%; Activity (RAW264.7): inactive; inhibition [5]: Active; Activity (BMDM [6]): Active; Activity [7]: Active; Activity (BMDM [8]): Active; inhibition [9]: inactive; Activity (BMDM [10]): Dose-Dependent Effect; inhibition [11]: inactive; Activity [12]: Active; Activity (BMDM [13]): Active; Activity (BMDM [14]): Active; inhibition (BMDM [15]): Active; Activity (BMDM [16]): Active; Kd [17]: 6.4 µM; Activity (BMDM [18]): Active; Activity (BMDM [19]): Active
